Assay results as given in PubChem BioAssay (NCI).
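Assay format: 96-well plates, 48-hour exposure. TGI: concentration producing complete growth inhibition.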

Key:
Test in all cases: NCI anticancer screen, dose series, 48 h
[1] = test system: HT29 colon
[2] = test system: KM12 colon
[3] = test system: SW-620 colon
[4] = test system: NCI-H522 lung
[5] = test system: U251 CNS
[6] = test system: SF-539 CNS
[7] = test system: EKVX NSCLC
[8] = test system: SK-MEL-5 melanoma
[9] = test system: SF-295 CNS
[10] = test system: RXF-631 renal
[11] = test system: KM20L2 colon
[12] = test system: LXFL 529 NSCLC
[13] = test system: UO-31 renal
[14] = test system: HOP-62 NSCLC
[15] = test system: SNB-78 CNS
[16] = test system: COLO 205 colon
[17] = test system: XF 498 CNS
[18] = test system: HOP-92 NSCLC
[19] = test system: OVCAR-8 ovarian
[20] = test system: HCC-2998 colon
[21] = test system: SNB-75 CNS
[22] = test system: SR leukemia
[23] = test system: HCT-15 colon
[24] = test system: SK-MEL-2 melanoma
[25] = test system: A498 renal
[26] = test system: SK-OV-3 ovarian
[27] = test system: SK-MEL-28 melanoma
[28] = test system: M14 melanoma
[29] = test system: M19-MEL melanoma
[30] = test system: HCT-116 colon
[31] = test system: SN12C renal
[32] = test system: A549 NSCLC
[33] = test system: HOP-18 NSCLC
[34] = test system: OVCAR-3 ovarian
[35] = test system: CAKI-1 renal
[36] = test system: DMS 273 small cell lung
[37] = test system: MALME-3M melanoma
[38] = test system: SF-268 CNS
[39] = test system: OVCAR-5 ovarian
[40] = test system: MOLT-4 leukemia
[41] = test system: SNB-19 CNS
[42] = test system: IGROV1 ovarian
[43] = test system: RPMI-8226 leukemia
[44] = test system: CCRF-CEM leukemia
[45] = test system: 786-0 renal
[46] = test system: TK-10 renal
[47] = test system: NCI-H23 lung
[48] = test system: DMS 114 small cell lung
[49] = test system: RXF 393 renal
[50] = test system: DLD-1 colon
[51] = test system: UACC-257 melanoma
[52] = test system: ACHN renal
[53] = test system: NCI-H460 lung
[54] = test system: K-562 leukemia
[55] = test system: LOX IMVI melanoma
[56] = test system: UACC-62 melanoma
[57] = test system: OVCAR-4 ovarian
[58] = test system: HL-60(TB) leukemia
[59] = test system: NCI-H226 lung

Q: Which TGI [1] does the source give for `COc1ccc(C2C(C#N)=C(O)NC(O)=C2C#N)cc1OC` here?
A: > 100 µM

Q: What about the TGI [2] of the same molecule?
A: > 100 µM

Q: And the TGI [3]?
A: > 100 µM

Q: What about the TGI [4] of the same molecule?
A: > 100 µM

Q: What about the TGI [5] of the same molecule?
A: > 100 µM

Q: And the TGI [6]?
A: > 100 µM

Q: And the TGI [7]?
A: > 100 µM

Q: What about the TGI [8] of the same molecule?
A: > 100 µM

Q: What about the TGI [9] of the same molecule?
A: > 100 µM

Q: What about the TGI [10] of the same molecule?
A: > 100 µM

Q: And the TGI [11]?
A: > 100 µM

Q: And the TGI [12]?
A: > 100 µM

Q: And the TGI [13]?
A: > 100 µM

Q: And the TGI [14]?
A: > 100 µM

Q: What about the TGI [15] of the same molecule?
A: > 100 µM

Q: And the TGI [16]?
A: > 100 µM

Q: And the TGI [17]?
A: > 100 µM

Q: And the TGI [18]?
A: > 100 µM

Q: What about the TGI [19] of the same molecule?
A: > 100 µM

Q: What about the TGI [20] of the same molecule?
A: > 100 µM

Q: What about the TGI [21] of the same molecule?
A: > 100 µM

Q: What about the TGI [22] of the same molecule?
A: > 100 µM

Q: And the TGI [23]?
A: > 100 µM

Q: And the TGI [24]?
A: > 100 µM

Q: And the TGI [25]?
A: > 100 µM

Q: And the TGI [26]?
A: > 100 µM

Q: And the TGI [27]?
A: > 100 µM

Q: What about the TGI [28] of the same molecule?
A: > 100 µM

Q: What about the TGI [29] of the same molecule?
A: > 100 µM

Q: What about the TGI [30] of the same molecule?
A: > 100 µM

Q: What about the TGI [31] of the same molecule?
A: > 100 µM

Q: And the TGI [32]?
A: > 100 µM

Q: What about the TGI [33] of the same molecule?
A: > 100 µM

Q: And the TGI [34]?
A: > 100 µM

Q: What about the TGI [35] of the same molecule?
A: > 100 µM

Q: What about the TGI [36] of the same molecule?
A: > 100 µM

Q: And the TGI [37]?
A: > 100 µM

Q: And the TGI [38]?
A: > 100 µM

Q: What about the TGI [39] of the same molecule?
A: > 100 µM

Q: And the TGI [40]?
A: > 100 µM

Q: And the TGI [41]?
A: > 100 µM

Q: What about the TGI [42] of the same molecule?
A: > 100 µM

Q: What about the TGI [43] of the same molecule?
A: > 100 µM

Q: Which results are given for `COc1ccc2c(c1)CCc1c(C(C)=O)c3ccccc3n1C2`?
A: TGI [44]: > 100 µM; TGI [1]: > 100 µM; TGI [2]: > 100 µM; TGI [3]: > 100 µM; TGI [4]: > 100 µM; TGI [45]: > 100 µM; TGI [5]: > 100 µM; TGI [6]: 62.6 µM; TGI [46]: > 100 µM; TGI [8]: > 100 µM; TGI [9]: > 100 µM; TGI [10]: > 100 µM; TGI [47]: > 100 µM; TGI [48]: > 100 µM; TGI [12]: > 100 µM; TGI [13]: > 100 µM; TGI [14]: 91.3 µM; TGI [15]: > 100 µM; TGI [16]: > 100 µM; TGI [49]: 75.4 µM; TGI [17]: 51.2 µM; TGI [18]: > 100 µM; TGI [19]: > 100 µM; TGI [20]: > 100 µM; TGI [21]: 85.1 µM; TGI [22]: > 100 µM; TGI [50]: > 100 µM; TGI [51]: > 100 µM; TGI [52]: > 100 µM; TGI [53]: > 100 µM; TGI [54]: > 100 µM; TGI [55]: > 100 µM; TGI [56]: > 100 µM; TGI [27]: > 100 µM; TGI [28]: > 100 µM; TGI [29]: > 100 µM; TGI [30]: > 100 µM; TGI [31]: > 100 µM; TGI [32]: > 100 µM; TGI [57]: > 100 µM; TGI [33]: > 100 µM; TGI [34]: > 100 µM; TGI [35]: > 100 µM; TGI [36]: > 100 µM; TGI [37]: 74.4 µM; TGI [58]: > 100 µM; TGI [38]: > 100 µM; TGI [39]: > 100 µM; TGI [40]: > 100 µM; TGI [41]: > 100 µM; TGI [42]: > 100 µM

Q: `CN(C)CCn1cnc2sc3ccccc3c21` was tested. Which TGI [44] did it give?
A: > 100 µM

Q: What about the TGI [1] of the same molecule?
A: > 100 µM

Q: What about the TGI [2] of the same molecule?
A: > 100 µM

Q: And the TGI [3]?
A: > 100 µM

Q: What about the TGI [4] of the same molecule?
A: > 100 µM

Q: What about the TGI [45] of the same molecule?
A: > 100 µM

Q: What about the TGI [5] of the same molecule?
A: > 100 µM

Q: What about the TGI [6] of the same molecule?
A: > 100 µM

Q: And the TGI [46]?
A: > 100 µM

Q: What about the TGI [7] of the same molecule?
A: > 100 µM

Q: What about the TGI [8] of the same molecule?
A: > 100 µM

Q: And the TGI [9]?
A: > 100 µM

Q: And the TGI [10]?
A: > 100 µM

Q: What about the TGI [47] of the same molecule?
A: > 100 µM

Q: And the TGI [48]?
A: > 100 µM

Q: What about the TGI [11] of the same molecule?
A: > 100 µM

Q: And the TGI [12]?
A: > 100 µM

Q: What about the TGI [14] of the same molecule?
A: > 100 µM

Q: And the TGI [15]?
A: > 100 µM

Q: And the TGI [16]?
A: > 100 µM

Q: What about the TGI [49] of the same molecule?
A: > 100 µM

Q: And the TGI [17]?
A: > 100 µM

Q: What about the TGI [19] of the same molecule?
A: > 100 µM

Q: What about the TGI [20] of the same molecule?
A: > 100 µM

Q: What about the TGI [21] of the same molecule?
A: 86.6 µM

Q: And the TGI [51]?
A: > 100 µM

Q: What about the TGI [23] of the same molecule?
A: > 100 µM

Q: What about the TGI [52] of the same molecule?
A: > 100 µM

Q: What about the TGI [53] of the same molecule?
A: > 100 µM

Q: What about the TGI [24] of the same molecule?
A: > 100 µM

Q: And the TGI [54]?
A: > 100 µM

Q: And the TGI [59]?
A: > 100 µM

Q: What about the TGI [55] of the same molecule?
A: > 100 µM

Q: And the TGI [25]?
A: > 100 µM

Q: And the TGI [56]?
A: > 100 µM

Q: And the TGI [26]?
A: > 100 µM

Q: And the TGI [27]?
A: > 100 µM

Q: And the TGI [28]?
A: > 100 µM

Q: What about the TGI [29] of the same molecule?
A: > 100 µM

Q: What about the TGI [30] of the same molecule?
A: > 100 µM

Q: And the TGI [31]?
A: > 100 µM

Q: What about the TGI [32] of the same molecule?
A: > 100 µM

Q: And the TGI [57]?
A: > 100 µM

Q: And the TGI [33]?
A: > 100 µM

Q: And the TGI [34]?
A: > 100 µM

Q: And the TGI [35]?
A: > 100 µM

Q: And the TGI [37]?
A: > 100 µM

Q: And the TGI [38]?
A: > 100 µM

Q: What about the TGI [39] of the same molecule?
A: > 100 µM

Q: And the TGI [40]?
A: > 100 µM

Q: What about the TGI [41] of the same molecule?
A: > 100 µM

Q: And the TGI [42]?
A: > 100 µM
